Data as given in article PMC10945555, “Improving Activity of New Arylurea Agents against Multidrug-Resistant and Biofilm-Producing Staphylococcus epidermidis” (ACS Medicinal Chemistry Letters, 2024).
Values after ≈ are worked out from the molar mass of the structure shown.

Assays:
[1] = system: biofilm-producing Staphylococcus epidermidis strains; assay: Biofilm eradication (MBEC Assay Kit); type: cell-based
BJ cells = assay: Cytotoxicity, MTT assay, skin fibroblasts; type: cell-based, human; details: Homo sapiens, MTT, 24 h, n = 3
Experimental: The following cell models were used in the research: rat cardiomyocytes (H9c2 line) and human skin fibroblasts (BJ line). All cell lines used in the work are commercially available and were purchased from ATCC banks (the American Type Culture Collection, Manassas, VI, USA). Cell cultures were carried out in an incubator under standard conditions (37°C, 5% CO 2).
Culture media (Dulbecco's Modified Eagle's Medium -DMEM (H9c2) and Eagle's Minimum Essential Medium-EMEM (BJ) were supplemented with 10% bovine serum and a 1% mixture of penicillin and streptomycin antibiotics. […]
doxorubicin (a cytotoxic drug) were used as reference and positive control, respectively. […]
solution (5 mg/mL) was transferred into culture medium of incubated cells. After 3 h, once dark crystals of formazan were produced in cells, medium was aspirated and 100 μ L of DMSO was added to dissolve formazan. Absorbance of DMSO solution was read on a multiwell plate reader (Spectra Max iD3, Molecular Devices) at 570 nm. In order to determine viability, absorbance of experimental wells was divided by absorbance of contro l well (not treated) and multiplied by 100 (%). Three separate experiments were performed. IC 50 was calculated using non-linear regression method in OriginPro software. […]

[2] = system: biofilm-producing Staphylococcus epidermidis strains; assay: Inhibition of biofilm formation (MBIC, resazurin); type: cell-based
Experimental: After 24 hours incubation each well of
concentration of 4 mg/mL was added. […]

[3] = S. epidermidis ATCC 35984 (Table S4)

O=S(=O)(NC1CCN(CCC(Oc2ccc(C(F)(F)F)cc2)c2ccccc2)CC1)c1cccc(Cl)c1 (stereo not shown) [Compound 12] gave an MBEC [1, 3] of 31.25 µg/mL, an MBEC50 ([1]; Table S4 strains) of 125 µg/mL and an MBEC ([1]; clinical strain 1 (Table S4)) of 125 µg/mL. It also gave an MBEC ([1]; clinical strain 2 (Table S4)) of 125 µg/mL, an MBEC ([1]; clinical strain 3 (Table S4)) of 250 µg/mL and an MBEC ([1]; clinical strain 4 (Table S4)) of 125 µg/mL. The MBEC ([1]; clinical strain 5 (Table S4)) was 125 µg/mL, the MBEC ([1]; clinical strain 6 (Table S4)) was 125 µg/mL and the MBEC ([1]; clinical strain 7 (Table S4)) was 125 µg/mL. For the same molecule, the MBEC ([1]; clinical strain 8 (Table S4)) was 62.5 µg/mL, the MBEC ([1]; clinical strain 9 (Table S4)) was 250 µg/mL and the MBEC ([1]; clinical strain 11 (Table S4)) was 125 µg/mL. For the same molecule, the MBEC ([1]; clinical strain 12 (Table S4)) was 125 µg/mL, the MBEC ([1]; clinical strain 13 (Table S4)) was 62.5 µg/mL and the MBEC ([1]; clinical strain 15 (Table S4)) was 125 µg/mL. For the same molecule, the MBEC ([1]; clinical strain 16 (Table S4)) was 62.5 µg/mL, the MBEC ([1]; clinical strain 17 (Table S4)) was 62.5 µg/mL and the MBEC ([1]; clinical strain 19 (Table S4)) was 31.25 µg/mL. For the same molecule, the MBEC ([1]; clinical strain 21 (Table S4)) was 125 µg/mL, the MBEC ([1]; clinical strain 22 (Table S4)) was 125 µg/mL and the MBEC ([1]; clinical strain 23 (Table S4)) was 31.25 µg/mL. It also gave an MBEC ([1]; clinical strain 25 (Table S4)) of 31.25 µg/mL, an MBEC ([1]; clinical strain 26 (Table S4)) of 250 µg/mL and an MBEC ([1]; clinical strain 27 (Table S4)) of 250 µg/mL. The MBEC ([1]; clinical strain 28 (Table S4)) was 125 µg/mL, the MBEC ([1]; clinical strain 29 (Table S4)) was 125 µg/mL and the MBEC ([1]; clinical strain 30 (Table S4)) was 125 µg/mL. It also gave an MBEC ([1]; clinical strain 33 (Table S4)) of 125 µg/mL, an MBEC ([1]; clinical strain 35 (Table S4)) of 125 µg/mL and an MBEC ([1]; clinical strain 36 (Table S4)) of 125 µg/mL. The MBEC ([1]; clinical strain 37 (Table S4)) was 125 µg/mL, the MBEC ([1]; clinical strain 39 (Table S4)) was 31.25 µg/mL and the MBEC ([1]; clinical strain 40 (Table S4)) was 125 µg/mL. It also gave an MBEC ([1]; clinical strain 41 (Table S4)) of 125 µg/mL, an MBEC ([1]; clinical strain 42 (Table S4)) of 125 µg/mL and an MBEC ([1]; clinical strain 43 (Table S4)) of 250 µg/mL. For the same molecule, the MBEC ([1]; clinical strain 44 (Table S4)) was 31.25 µg/mL, the MBEC ([1]; clinical strain 45 (Table S4)) was 125 µg/mL and the MBEC ([1]; clinical strain 46 (Table S4)) was 125 µg/mL. It also gave an MBEC ([1]; clinical strain 47 (Table S4)) of 62.5 µg/mL, an MBEC ([1]; clinical strain 49 (Table S4)) of 31.25 µg/mL and an MBEC ([1]; clinical strain 51 (Table S4)) of 250 µg/mL. For the same molecule, the MBEC ([1]; clinical strain 55 (Table S4)) was 125 µg/mL, the MBEC ([1]; clinical strain 58 (Table S4)) was 125 µg/mL and the MBEC ([1]; clinical strain 59 (Table S4)) was 125 µg/mL. The MBEC ([1]; clinical strain 65 (Table S4)) was 125 µg/mL, the MBEC ([1]; clinical strain 66 (Table S4)) was 125 µg/mL and the MBEC ([1]; clinical strain 67 (Table S4)) was 125 µg/mL. The MBEC ([1]; clinical strain 70 (Table S4)) was 250 µg/mL, the MBEC ([1]; clinical strain 73 (Table S4)) was 31.25 µg/mL and the MBEC ([1]; clinical strain 74 (Table S4)) was 125 µg/mL. The MBEC ([1]; clinical strain 75 (Table S4)) was 31.25 µg/mL, the MBEC ([1]; clinical strain 78 (Table S4)) was 31.25 µg/mL and the MBEC ([1]; clinical strain 79 (Table S4)) was 31.25 µg/mL. The IC50 (BJ cells) was 7.4 µg/mL (≈ 13.4 µM), the MBIC [2, 3] was 31.25 µg/mL and the MBIC50 ([2]; Table S4 strains) was 125 µg/mL. It also gave an MBIC ([2]; clinical strain 1 (Table S4)) of 125 µg/mL, an MBIC ([2]; clinical strain 2 (Table S4)) of 125 µg/mL and an MBIC ([2]; clinical strain 3 (Table S4)) of 125 µg/mL. It also gave an MBIC ([2]; clinical strain 4 (Table S4)) of 125 µg/mL, an MBIC ([2]; clinical strain 5 (Table S4)) of 62.5 µg/mL and an MBIC ([2]; clinical strain 6 (Table S4)) of 125 µg/mL. The MBIC ([2]; clinical strain 7 (Table S4)) was 125 µg/mL, the MBIC ([2]; clinical strain 8 (Table S4)) was 15.6 µg/mL and the MBIC ([2]; clinical strain 9 (Table S4)) was 125 µg/mL. The MBIC ([2]; clinical strain 11 (Table S4)) was 125 µg/mL, the MBIC ([2]; clinical strain 12 (Table S4)) was 125 µg/mL and the MBIC ([2]; clinical strain 13 (Table S4)) was 62.5 µg/mL. It also gave an MBIC ([2]; clinical strain 15 (Table S4)) of 125 µg/mL, an MBIC ([2]; clinical strain 16 (Table S4)) of 62.5 µg/mL and an MBIC ([2]; clinical strain 17 (Table S4)) of 62.5 µg/mL. For the same molecule, the MBIC ([2]; clinical strain 19 (Table S4)) was 31.25 µg/mL, the MBIC ([2]; clinical strain 21 (Table S4)) was 125 µg/mL and the MBIC ([2]; clinical strain 22 (Table S4)) was 125 µg/mL. For the same molecule, the MBIC ([2]; clinical strain 23 (Table S4)) was 31.25 µg/mL, the MBIC ([2]; clinical strain 25 (Table S4, Figure 2)) was 31.25 µg/mL and the MBIC ([2]; clinical strain 26 (Table S4)) was 125 µg/mL. For the same molecule, the MBIC ([2]; clinical strain 27 (Table S4)) was 250 µg/mL, the MBIC ([2]; clinical strain 28 (Table S4)) was 62.5 µg/mL and the MBIC ([2]; clinical strain 29 (Table S4)) was 62.5 µg/mL. It also gave an MBIC ([2]; clinical strain 30 (Table S4)) of 62.5 µg/mL, an MBIC ([2]; clinical strain 33 (Table S4)) of 125 µg/mL and an MBIC ([2]; clinical strain 35 (Table S4)) of 125 µg/mL. It also gave an MBIC ([2]; clinical strain 36 (Table S4)) of 62.5 µg/mL, an MBIC ([2]; clinical strain 37 (Table S4)) of 125 µg/mL and an MBIC ([2]; clinical strain 39 (Table S4)) of 31.25 µg/mL. For the same molecule, the MBIC ([2]; clinical strain 40 (Table S4)) was 125 µg/mL, the MBIC ([2]; clinical strain 41 (Table S4)) was 125 µg/mL and the MBIC ([2]; clinical strain 42 (Table S4)) was 125 µg/mL. It also gave an MBIC ([2]; clinical strain 43 (Table S4)) of 250 µg/mL, an MBIC ([2]; clinical strain 44 (Table S4)) of 31.25 µg/mL and an MBIC ([2]; clinical strain 45 (Table S4)) of 125 µg/mL. The MBIC ([2]; clinical strain 46 (Table S4)) was 125 µg/mL, the MBIC ([2]; clinical strain 47 (Table S4)) was 62.5 µg/mL and the MBIC ([2]; clinical strain 49 (Table S4)) was 31.25 µg/mL. It also gave an MBIC ([2]; clinical strain 51 (Table S4)) of 125 µg/mL, an MBIC ([2]; clinical strain 55 (Table S4)) of 125 µg/mL and an MBIC ([2]; clinical strain 58 (Table S4)) of 125 µg/mL. For the same molecule, the MBIC ([2]; clinical strain 59 (Table S4)) was 125 µg/mL, the MBIC ([2]; clinical strain 65 (Table S4)) was 125 µg/mL and the MBIC ([2]; clinical strain 66 (Table S4)) was 125 µg/mL. For the same molecule, the MBIC ([2]; clinical strain 67 (Table S4)) was 125 µg/mL, the MBIC ([2]; clinical strain 70 (Table S4)) was 125 µg/mL and the MBIC ([2]; clinical strain 73 (Table S4)) was 31.25 µg/mL. It also gave an MBIC ([2]; clinical strain 74 (Table S4)) of 125 µg/mL, an MBIC ([2]; clinical strain 75 (Table S4)) of 31.25 µg/mL and an MBIC ([2]; clinical strain 78 (Table S4)) of 31.25 µg/mL. For the same molecule, the MBIC ([2]; clinical strain 79 (Table S4)) was 31.25 µg/mL.
